Measurements published in BindingDB's records for doi:10.1016/j.bioorg.2016.07.011 (Universiti Teknologi Mara (Uitm), 2016).

Biological target: Carbonic anhydrase 2 (Bos taurus, UniProt P00921)
Assay: Carbonic Anhydrase (bCAII) Inhibition Assay
Details: pH 7.2
Experimental: This was assay performed using buffer containing Tris and HEPES at the pH of 7.2-7.9 and a total concentration of 20 mM. 96-well plates were filled with 140 µL of Tris-HEPES solution, 20 µL of bovine erythrocyte carbonic anhydrase II solution (0.1-0.2 mg/2000 mL), and 20 µL of 0.7 mM para-nitrophenyl acetate (diluted in ethanol). Test compounds were incubated at 25-28 °C for 15 min prior to addition of para-nitrophenyl acetate, which starts the reaction. The reaction was allowed to taking place for 30 min at 25-28 °C. All compounds tested in triplicate at different concentration. The amount of product that forms during thereaction monitored at 400 nm after 30 min using SPECTRA-max 340 spectrophotometer, Molecular Devices (USA).

Carbonic anhydrase 2, sequence (P00921 whole entry): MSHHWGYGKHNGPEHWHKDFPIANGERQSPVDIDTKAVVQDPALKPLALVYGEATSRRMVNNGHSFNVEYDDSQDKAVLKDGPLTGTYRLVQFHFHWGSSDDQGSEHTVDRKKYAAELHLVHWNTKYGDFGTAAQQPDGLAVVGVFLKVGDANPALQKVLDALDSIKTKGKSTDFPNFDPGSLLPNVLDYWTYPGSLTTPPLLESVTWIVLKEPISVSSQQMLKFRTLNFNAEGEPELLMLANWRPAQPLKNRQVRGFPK

O=S(=O)(Nc1ccc(C(c2c[nH]c3ccc(Cl)cc23)c2c[nH]c3ccc(Cl)cc23)cc1)c1cc(Cl)c(Cl)cc1Cl [N-(4-(bis(5-chloro-1H-indol-3-yl)methyl)phenyl)-2,4,5-trichlorobenzenesulfonamide (5f)]
IC50: 16.3 µM

O=[N+]([O-])c1ccccc1S(=O)(=O)Nc1ccc(C(c2c[nH]c3ccc(Br)cc23)c2c[nH]c3ccc(Br)cc23)cc1 [N-(4-(bis(5-bromo-1H-indol-3-yl)methyl)phenyl)-2-nitrobenzenesulfonamide (4d)]
IC50: 65.2 µM

O=[N+]([O-])c1cc(S(=O)(=O)Nc2ccc(C(c3c[nH]c4ccc(Br)cc34)c3c[nH]c4ccc(Br)cc34)cc2)ccc1Cl [N-(4-(bis(5-bromo-1H-indol-3-yl)methyl)phenyl)-4-chloro-3-nitrobenzenesulfonamide (4h)]
IC50: 83.1 µM

O=[N+]([O-])c1ccc(S(=O)(=O)Nc2ccc(C(c3c[nH]c4ccc(Br)cc34)c3c[nH]c4ccc(Br)cc34)cc2)c([N+](=O)[O-])c1 [N-(4-(bis(5-bromo-1H-indol-3-yl)methyl)phenyl)-2,4-dinitrobenzenesulfonamide (4g)]
IC50: 28.9 µM

O=[N+]([O-])c1ccc(S(=O)(=O)Nc2ccc(C(c3c[nH]c4ccc(Cl)cc34)c3c[nH]c4ccc(Cl)cc34)cc2)c([N+](=O)[O-])c1 [N-(4-(bis(5-chloro-1H-indol-3-yl)methyl)phenyl)-2,4-dinitrobenzenesulfonamide (5g)]
IC50: 15.6 µM

Cc1ccc([N+](=O)[O-])cc1S(=O)(=O)Nc1ccc(C(c2c[nH]c3ccc(Br)cc23)c2c[nH]c3ccc(Br)cc23)cc1 [N-(4-(bis(5-bromo-1H-indol-3-yl)methyl)phenyl)-2-methyl-5-nitrobenzenesulfonamide (4i)]
IC50: 44.3 µM

O=S(=O)(Nc1ccc(C(c2c[nH]c3ccc(Cl)cc23)c2c[nH]c3ccc(Cl)cc23)cc1)c1ccc(Cl)cc1 [N-(4-(bis(5-chloro-1H-indol-3-yl)methyl)phenyl)-4-chlorobenzenesulfonamide (5l)]
IC50: 45.5 µM

O=S(=O)(Nc1ccc(C(c2c[nH]c3ccc(Br)cc23)c2c[nH]c3ccc(Br)cc23)cc1)c1cc(Cl)c(Cl)cc1Cl [N-(4-(bis(5-bromo-1H-indol-3-yl)methyl)phenyl)-2,4,5-trichlorobenzenesulfonamide (4f)]
IC50: 40.3 µM

O=S(=O)(Nc1ccc(C(c2c[nH]c3ccc(Br)cc23)c2c[nH]c3ccc(Br)cc23)cc1)c1cc(Cl)cc(Cl)c1O [N-(4-(bis(5-bromo-1H-indol-3-yl)methyl)phenyl)-3,5-dichloro-2-hydroxybenzenesulfonamide (4k)]
IC50: 18.8 µM

Cc1ccc([N+](=O)[O-])cc1S(=O)(=O)Nc1ccc(C(c2c[nH]c3ccc(Cl)cc23)c2c[nH]c3ccc(Cl)cc23)cc1 [N-(4-(bis(5-chloro-1H-indol-3-yl)methyl)phenyl)-2-methyl-5-nitrobenzenesulfonamide (5i)]
IC50: 14.3 µM

COc1ccc(Cl)cc1S(=O)(=O)Nc1ccc(C(c2c[nH]c3ccc(Cl)cc23)c2c[nH]c3ccc(Cl)cc23)cc1 [N-(4-(bis(5-chloro-1H-indol-3-yl)methyl)phenyl)-5-chloro-2-methoxybenzene sulfonamide (5e)]
IC50: 176 µM

O=S(=O)(Nc1ccc(C(c2c[nH]c3ccccc23)c2c[nH]c3ccccc23)cc1)c1cc(Cl)cc(Cl)c1O [3,5-Dichloro-N-(4-(di(1H-indol-3-yl)methyl)phenyl)-2-hydroxybenzenesulfonamide (3k)]
IC50: 58.1 µM

O=S(=O)(Nc1ccc(C(c2c[nH]c3ccc(Br)cc23)c2c[nH]c3ccc(Br)cc23)cc1)c1ccc2ccccc2c1 [N-(4-(bis(5-bromo-1H-indol-3-yl)methyl)phenyl)naphthalene-2-sulfonamide (4c)]
IC50: 90.4 µM

O=[N+]([O-])c1ccc(S(=O)(=O)Nc2ccc(C(c3c[nH]c4ccc(Br)cc34)c3c[nH]c4ccc(Br)cc34)cc2)cc1 [N-(4-(bis(5-bromo-1H-indol-3-yl)methyl)phenyl)-4-nitrobenzenesulfonamide (4b)]
IC50: 63.9 µM

O=S(=O)(Nc1ccc(C(c2c[nH]c3ccc(Cl)cc23)c2c[nH]c3ccc(Cl)cc23)cc1)c1cc(Cl)cc(Cl)c1O [N-(4-(bis(5-chloro-1H-indol-3-yl)methyl)phenyl)-3,5-dichloro-2-hydroxybenzenesulfonamide (5k)]
IC50: 20.2 µM

O=[N+]([O-])c1ccccc1S(=O)(=O)Nc1ccc(C(c2c[nH]c3ccccc23)c2c[nH]c3ccccc23)cc1 [N-(4-(di(1H-indol-3-yl)methyl)phenyl)-2-nitrobenzenesulfonamide (3d)]
IC50: 35.9 µM

O=[N+]([O-])c1ccccc1S(=O)(=O)Nc1ccc(C(c2c[nH]c3ccc(Cl)cc23)c2c[nH]c3ccc(Cl)cc23)cc1 [N-(4-(bis(5-chloro-1H-indol-3-yl)methyl)phenyl)-2-nitrobenzenesulfonamide (5d)]
IC50: 44.5 µM

O=[N+]([O-])c1cc(S(=O)(=O)Nc2ccc(C(c3c[nH]c4ccc(Cl)cc34)c3c[nH]c4ccc(Cl)cc34)cc2)ccc1Cl [N-(4-(bis(5-chloro-1H-indol-3-yl)methyl)phenyl)-4-chloro-3-nitrobenzenesulfonamide (5h)]
IC50: 68.9 µM
